This is an account of results in patent publication US5705649A, “Protein staining compositions and methods” (Promega Corporation, priority 1995, dated 1998).

One data set concerns bovine serum albumin. In words: Analysis of partial proteolytic products (Cleveland analysis). As to the method:
The comparison of proteins by analysis of the products of partial proteolysis using SDS-PAGE electrophoresis has been reported extensively in the literature. This analysis, termed Cleveland analysis, can provide important information on many different types of covalent changes that can occur on proteins.
An 8% SDS-PAGE gel was made as described in Example 5. A 5 μl sample of 1× loading buffer containing 4 μg of Bovine serum albumin previously heated at 95° C. for 5 minutes was placed in several of the wells and electrophoresis was performed as described in Example 5.
A second […] 16% SDS-PAGE gel was made as described in Example 5.
After electrophoresis, segments of the gel containing the BSA sample were excised by use of a razor blade and loaded into three of the sample wells of the second, 16 % gel. Then, 20 μl of 1× loading buffer containing 0.5 μg of Endoprotease Glu C, 0.5 μg of Endoprotease Lys C and 0.1 μg of Alkaline Protease, respectively, was added to individual wells containing the gel slices. Also, 5 μl of a solution of 4 μg of BSA in 1× loading buffer that was previously heated to 95° C. for 15 minutes was placed in a second set of three wells. To each of these three samples was added individual 20 μl solutions containing 0.5 μg of Endoprotease Glu C, 0.5 μg of Endoprotease Lys C, or 0.1 μg of Alkaline Protease, respectively. […]

The subject of the next data set is protein (BSA). In words: Sensitive solution protein quantitation assay. Further details: species or system bovine. Particulars: 0.5M tris base, 3 hours. As to the method: In order to conclusively determine a format for the sensitive quantitation of protein in solution using Promega Green 1, Promega Green 1 stock solution was diluted at ratios of 1:250 (v/v) and 1:1000 (v/v) into 0.5M tris base containing 0, 5, 10, 20, 40, 60, 80, and 100 μg protein (BSA) per ml of solution. […]

In data set [1] the test system is Promega Mid-Range Molecular Weight Markers. In words: Detection of proteins during SDS-PAGE electrophoresis (dye in cathode buffer). The text has this: Solutions for the formation and electrophoresis of proteins were made according to the instructions given in Experiments in Gene Fusions, Silhavy, Berman, Enquist, Cold Spring Harbor Laboratory Press, Cold Spring Harbor, N.Y. with the following changes:
a) The SDS concentration in the upper and lower gel buffer components were reduced to result in a 0.05% final SDS concentration in the gel. Thus, the composition of 4× upper gel buffer was 0.5M Tris-HCl, pH 6.8, 0.2 % (w/v) sodium dodecylsulfate (SDS) and the composition of 4× lower gel buffer was 1.5M Tris-HCl, pHS.8, 0.2 % (w/v) SDS.
b) The SDS concentration in the electrophoretic (electrode) buffer was reduced to 0.04% final concentration. Thus, 4× electrode (anode or cathode) buffer was made by dissolving 60 g Tris base, 288 g glycine, and 8 g SDS dissolved in water and then diluting with water to 5 liters. Another name sometimes used for "electrode" buffer is "running" buffer.
c) The SDS concentration in the 2× sample buffer was reduced to 1% final SDS concentration. Thus, 2× sample buffer was made by mixing 0.5 ml of betamercaptoethanol, 0.25 ml of 0.1% (w/v) bromophenol blue, 1 ml of 10 % (w/v) SDS, 3 ml of water, and 5.3 ml of 2× glycerol buffer. 2× glycerol buffer is made by mixing 12.5 ml of 4× upper gel buffer and 20 ml of glycerol and diluting the resulting solution to 60 ml with water. Another name sometimes used for "sample" buffer is "loading" buffer.
d) Electrophoresis was performed using a BIO-RAD miniprotein II electrophoresis apparatus and gels were poured such that i cm of space was present between the bottom of the loading wells and the separating gel.
In other electrophoresis experiments reported in this application, the buffers used were as described above in this example. In some cases, as in this example, where preparation of a solution of dye in 150 ml of cathode (or electrode) buffer is specified, an amount of stock solution of a dye was first added to 150 ml of cathode buffer and then 125 ml of the resulting solution was used to fill the cathode buffer chamber (which holds 125 ml) in the electrophoresis apparatus. In other cases, where addition of stock solution of dye to the cathode buffer is specified without reference to the volume of cathode buffer or with reference to such volume being "125 ml," the stock solution was added directly to 125 ml of cathode buffer already in the cathode buffer chamber.
The samples used were prepared with Promega Mid-Range Molecular Weight Markers solution (Promega Corp., Madison, Wis., USA, Catalog No. V5231) (referred to hereinafter as "Promega Mid-Range [Molecular Weight] Markers or Standards") diluted into Sample Buffer. […]

As for `CCCCCCCC(=O)N(c1ccc(OCC)cc1)c1ccc(C(=C2C=CC(=[N+](CC)Cc3cccc(S(=O)(=O)[O-])c3)C=C2)c2ccc(N(CC)Cc3cccc(S(=O)(=O)O)c3)cc2)cc1` [Promega Green 1], in the data set with bovine serum albumin (30% methanol, 4% acetic acid enhancement), the “visibility of partial proteolytic pattern” value is given as “readily apparent in a very short period of time”. Further, the “interference with Cleveland type protein analysis” value with bovine serum albumin (Endoprotease Glu C, Endoprotease Lys C, Alkaline Protease) is “does not interfere with Cleveland type protein analysis”. For the same molecule, the Absorption was determined as 0.543 in the data set with protein (BSA) (dye 1:250, protein 0 μg/ml); 0.515 with protein (BSA) (dye 1:250, protein 5 μg/ml); 0.472 with protein (BSA) (dye 1:250, protein 10 μg/ml); 0.427 in the data set with protein (BSA) (dye 1:250, protein 20 μg/ml); 0.386 in the data set on protein (BSA) (dye 1:250, protein 40 μg/ml); 0.358 in the data set with protein (BSA) (dye 1:250, protein 60 μg/ml). Further, the Absorption in the data set on protein (BSA) (dye 1:250, protein 80 μg/ml) amounted to 0.342; in the data set with protein (BSA) (dye 1:250, protein 100 μg/ml), 0.317; in the data set with protein (BSA) (dye 1:1000, protein 0 μg/ml), 0.079; in the data set on protein (BSA) (dye 1:1000, protein 5 μg/ml), 0.069; in the data set with protein (BSA) (dye 1:1000, protein 10 μg/ml) it was 0.059; in the data set on protein (BSA) (dye 1:1000, protein 20 μg/ml), 0.051. The Absorption in the data set on protein (BSA) (dye 1:1000, protein 40 μg/ml) came out at 0.048; in the data set with protein (BSA) (dye 1:1000, protein 60 μg/ml), 0.047; in the data set on protein (BSA) (dye 1:1000, protein 80 μg/ml), 0.044; with protein (BSA) (dye 1:1000, protein 100 μg/ml) it was 0.043. For the same molecule, the “lowest protein amount per band visible while the gel was running” value in data set [1] (10% SDS-PAGE, dye in cathode buffer, white plastic card behind gel) worked out at 1.0 µg. The “lowest protein amount per band visible by the end of the run (most of the bands)” value in data set [1] (essentially clear background) was 0.5 µg.
